{"source": "patent US20220339260A1", "about": "“METHOD FOR PRODUCING INSULIN-PRODUCING CELL USING DIHYDROINDOLIZINONE DERIVATIVES” (TOKYO INSTITUTE OF TECHNOLOGY, priority 2019, published 2022)", "key": {"[1]": {"system": "Toe human iPS cells", "test": "Differentiation of Toe human iPS cells into iPS-β cells, monolayer culture, protocol #1", "format": "cell-based", "conditions": "treatment from later stage of stage 3 to initial stage of stage 5", "protocol": "The Toe human iPS cells were seeded in CellBIND 6-well (CORNING, CLS3335) cell culture plate coated with synthemax II, and differentiated into primitive gut tube cells by the previously described method (Shahjalal et al., 2014). The cells were dissociated with TrypLE Select (Thermo Fisher, 12563011) and cryopreserved in BanBanker (Nippon genetics) at a density of 1.0 to 2.0×10^7 cells/mL until use. One day before compound addition, the cells were thawed in a medium for stage 3 (DMEM (high glucose), 0.25 μM SANT1 (Wako, 197-16351), 0.1 μM LDN193189 (Stemgent, 04-0074), 10 μM SB431542, 2 μM retinoic acid, 1% B27-free serum supplement (Life Technologies, 17504044), and seeded at 150,000 cells per well in CellBIND 96-well (Corning, 3340) cell culture plated coated with synthemax II. The cells were cultured for 1 day in a medium for stage 3 containing a test compound or a negative control (0.01% DMSO). The cells were further cultured for 2 days and 1 day in media for stages 4 and 5, respectively, containing the test compound or the negative control. On the next day, the cells were fixed in 4% paraformaldehyde for analysis using a high-content imager."}, "[2]": {"system": "SK7 mouse ES cells", "test": "Screening for β cell differentiation enhancer using SK7 mouse ES cells (Pdx1-GFP)", "format": "cell-based", "protocol": "The SK7 mouse ES cells were differentiated into β cells basically according to the previous report (Nakashima et al., 2015). Briefly, the cells were seeded at 5,000 cells per well in CellBIND 384-well (CORNING, 3770) cell culture plate or at 20,000 cells per well in a 96-well plate (Sigma) coated with 0.2% gelatin. Then, the cells were cultured in medium 1 from days 1 to 5. Medium 1 consisted of DMEM (high glucose) (Life Technologies, 11965092) supplemented with 0.1 mM NEAA (Gibco, 11140-50), 2 mM L-glutamine (Nacalai, 16948-04), 100 U/mL penicillin-streptomycin (Nacalai, 26252-94), 0.01 mM β-mercaptoethanol (Sigma), 1% insulin-transferrin-selenium supplement (ITS: Life Technologies, 41400045), 0.25% Albumax (Thermo Fisher, 11020021), and 10 ng/mL recombinant human activin-A (R&D Systems, 338-AC). Subsequently, the cells were cultured for 1 day in medium 2 which consisted of medium 1 supplemented with 10 μM retinoic acid (Stemgent, 04-0021). On day 6, the medium was replaced with medium 3, and the culture was continued until day 12 in order to induce differentiation into β cells. Medium 3 consisted of DMEM (low glucose) (Life Technologies, 11885084) supplemented with 0.1 mM NEAA, 2 mM L-glutamine, 100 U/mL penicillin-streptomycin, 0.1 mM β-mercaptoethanol, 1% ITS, 0.25% Albumax, and 3 mM nicotinamide (Sigma-Aldrich, N0636-500G). A test compound was added on day 8, and the cells were fixed in 4% paraformaldehyde for analysis using a high-content imager.\nA chemical library consisting of about 55,000 compounds was screened for a substance that induced β cell differentiation. […] Fluorescence images were quantified using Operetta high-content imaging system and Harmony image analysis software (PerkinElmer, Germany). The nuclei were identified by DAPI staining, and the positivity of antibody staining was determined from the fluorescence intensity of a cytoplasmic region surrounding the nucleus. The number of cells positive to both insulin and GFP was counted and normalized with the total number of DAPI-positive cells or a positive area. A median of quadruple data was calculated, and screening hits were defined as states in which the number of insulin- and GFP-positive cells was increased as compared with a DMSO control. […] The activity of the selected candidate compounds was further analyzed with Toe human iPS cell assay system in order to select a hit compound having effectiveness for both differentiation into mouse β cells and differentiation into human β cells. A compound was added as described above, and its effectiveness was evaluated from a mRNA expression level by q-PCR in triplet experiments. […]"}}, "data": [{"molecule": "O=C1CCC(C(=O)Nc2ncc(-c3ccccc3)s2)n2cccc21", "note": "(stereo not shown) [Synthesis Example 1, 8-Oxo-N-(5-phenylthiazol-2-yl)-6,7-dihydro-5H-indolizine-5-carboxamide]", "values": [{"measurement": "differentiation into iPS-β cells (INS+ cells)", "setting": "[1]", "value": "enhanced differentiation into iPS-β cells"}, {"measurement": "number of Pdx1-GFP+Ins+ double-positive cells", "setting": "[2]; K-1 in combination with γ-secretase inhibitor LY411575", "value": "further enhanced increase"}, {"measurement": "ratio of Pdx1-GFP+insulin+ double-positive cells", "setting": "[2]; dose-dependent, compound added on day 8", "value": "increased"}, {"measurement": "expression of insulin 1", "setting": "[2]; dose-dependent, mRNA normalized with Hprt1", "value": "increased"}]}]}
